By IC50 is commonly meant the concentration needed to halve the response being measured. What is called viability, T/C is the result in the treated group divided by that in the control group, in per cent.

For the test, the system named is 565726-208-R1-J5-PDC complex spheroids, growth inhibition. In words: Anticancer human tumor 565726-208-R1-J5-PDC patient-derived pancreatic adenocarcinoma cell line growth inhibition [RAS]. The following applies: for IC50: curve of first compound; for viability, T/C: stronger effect = lower value. The text has this: RAS pathway inhibitors in Combinations in Complex Spheroids
A high-throughput screen of multi-cell type tumor spheroids was designed to identify active combinations of RAS pathway inhibitors and targeted small molecules. Complex spheroids include a stromal component modeled by human endothelial cells (HUVEC) and fibroblasts modeled by human mesenchymal stem cells (MSCs). The concentration ranges selected for each drug and investigational agent were based upon clinically achievable concentrations if the clinical Cmax of the agent was known.
Compounds. The drugs and investigational agents: abemaciclib (NSC768073), cobimetinib (NSC768068), divarasib (GDC6063, NSC841802), docetaxel (NSC628503), GDC-1971 (RLY-1971, NSC841576), gemcitabine (NSC613327), inavolisib (NSC800729), ipatasertib (NSC767898), KB-0742 (NSC834161), MRTX-1133 (NSC836407), osimertinib (NSC779217), RMC-4630 (NSC839698), RMC-6236 (NSC851965), RMC-6291 (NSC852671), Ro-3306 (NSC812927), sapanisertib (NSC764658), SN-38 (NSC673596), staurosporine (NSC755774), SY5609 (NSC837396), and tovorafenib (DAY101, NSC766906), were obtained from the National Cancer Institute (NCI) Developmental Therapeutics Program Chemical Repository. The FDA-approved anticancer drug set is available from the NCI Developmental Therapeutics Program. […] The stock solutions were prepared in dimethyl sulfoxide (DMSO, Sigma-Aldrich, St. Louis, MO, cat. D2650) at 800-fold the tested concentration and stored at -70 degrees C prior to their use. All drugs and investigational agents were tested over a range starting from a high concentration at or near the clinical Cmax and decreasing in half-log increments. If the clinical Cmax for an agent had not been determined, the highest concentration tested was 10 microM.
Cell Culture. All cells were maintained in an incubator at 37 degrees C and 5% CO2 with 95% humidity. The PDC lines were cultured according to standard operating procedures established by the NCI PDMR. All PDCs were thawed and cultured in Matrigel-coated flasks prepared with a working solution of 1X Ham's F-12 nutrient mix, without supplementation (Invitrogen, Waltham, MA, cat. 11765054), 100 U/mL penicillin-streptomycin (Invitrogen, cat. 15140122), and 2.5% Matrigel (Corning Inc., Corning, NY, cat. 354248) for the first three passages. The 362531-283-R-J2-PDC and 782815-120-R-J1-PDC lines were cultured in 6C/Colon 1B media, which includes advanced DMEM/F-12 (Thermo Fisher Scientific, cat. 12634028), 10 mM HEPES (Thermo Fisher Scientific, cat. 15630080), 1X GlutaMAX supplement (Thermo Fisher Scientific, cat. 35050061), 0.1 mg/mL primocin (InvivoGen, San Diego, CA, cat. ant-pm-2), 10% defined fetal bovine serum, heat inactivated (HyClone Laboratories Inc., Logan, UT, cat. SH30070.03HI), 50% L-WRN conditioned media (ATCC, cat. CRL-3276), 1.25 mM N-Acetyl-L-cysteine (Sigma-Aldrich, cat. A9165), 10 mM nicotinamide (Sigma-Aldrich, cat. N0636), 1X B-27 supplement (Thermo Fisher Scientific, cat. 17504044), 1X N-2 supplement (Thermo Fisher Scientific, cat. 17502048), 50 ng/mL human EGF (Thermo Fisher Scientific, cat. PHG0311), and 10 microM Y-27632 dihydrochloride (Tocris Bioscience, cat. 1254). The K12877-001-R-J1-PDC line was cultured in 6I media, which includes all 6C/Colon 1B media plus 10 ng/mL human FGF-10 (PeproTech, cat. 100-26), 1 ng/mL human FGF-2 (PeproTech, cat. 100-18B), 1 µM prostaglandin E2 (Tocris Bioscience, cat. 2296), […] hydrocortisone (Sigma-Aldrich, cat. H4001), and […] bovine insulin (Sigma-Aldrich, cat. I6634). The K86415-001-R-J1-PDC line was cultured in 6D media, which includes all 6C/Colon 1B media components minus the L-WRN conditioned media. The 485176-168-R4-J1-PDC was cultured in PANC media, which includes all 6C/Colon 1B media plus 100 ng/mL human FGF-10 (PeproTech, cat. 100-26), 500 nM SB-431542 (Selleckchem, cat. S1067), and 10 nM gastrin (Tocris Bioscience, cat. 3006). […]

Some results are limits rather than exact numbers.
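Note: spheroids exposed to compounds for seven days before readout.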

On to `CCc1c2c(nc3ccc(O)cc13)-c1cc3c(c(=O)n1C2)COC(=O)[C@]3(O)CC` + CCn1c(-c2cc(N3CCN(C)CC3)cnc2C(C)OC)c2c3cc(ccc31)-c1csc(n1)CC(NC(=O)C1CC1C)C(=O)N1CCCC(N1)C(=O)OCC(C)(C)C2, for which the IC50 is, setting by setting: (second compound 0.000949 µM) 1.36 nM; (second compound 0.003 µM) < 0.949 nM; (second compound 0.00949 µM) < 0.949 nM; (second compound 0.03 µM) < 0.949 nM; (second compound 0.0949 µM) < 0.949 nM; (second compound 0.3 µM) < 0.949 nM. Besides, the viability, T/C runs as follows: (second compound 0.000949 µM, first compound 0.000949 µM) 58%; (second compound 0.000949 µM, first compound 0.003 µM) 32.1%; (second compound 0.000949 µM, first compound 0.00949 µM) 21.2%; (second compound 0.000949 µM, first compound 0.03 µM) 16.2%; (second compound 0.000949 µM, first compound 0.0949 µM) 9.45%; (second compound 0.000949 µM, first compound 0.3 µM) 5.7%. Besides, the viability, T/C reads like this: (second compound 0.003 µM, first compound 0.000949 µM) 47.9%; (second compound 0.003 µM, first compound 0.003 µM) 32.1%; (second compound 0.003 µM, first compound 0.00949 µM) 25.3%; (second compound 0.003 µM, first compound 0.03 µM) 17.7%; (second compound 0.003 µM, first compound 0.0949 µM) 12.1%; (second compound 0.003 µM, first compound 0.3 µM) 6.82%. For the same compound, the viability, T/C (second compound 0.00949 µM, first compound 0.000949 µM) was 36.1%; the viability, T/C (second compound 0.00949 µM, first compound 0.003 µM) is 30%; the viability, T/C (second compound 0.00949 µM, first compound 0.00949 µM) is 21.6%; the viability, T/C (second compound 0.00949 µM, first compound 0.03 µM) is 16%; the viability, T/C (second compound 0.00949 µM, first compound 0.0949 µM) is 12.1%; the viability, T/C (second compound 0.00949 µM, first compound 0.3 µM) is 6.89%. Also, the viability, T/C (second compound 0.03 µM, first compound 0.000949 µM) is 27.9%; the viability, T/C (second compound 0.03 µM, first compound 0.003 µM) is 24.1%; the viability, T/C (second compound 0.03 µM, first compound 0.00949 µM) was 20.7%; the viability, T/C (second compound 0.03 µM, first compound 0.03 µM) is 15.9%; the viability, T/C (second compound 0.03 µM, first compound 0.0949 µM) is 11.9%; the viability, T/C (second compound 0.03 µM, first compound 0.3 µM) was 6.36%. The viability, T/C reads like this: (second compound 0.0949 µM, first compound 0.000949 µM) 22.6%; (second compound 0.0949 µM, first compound 0.003 µM) 23.4%; (second compound 0.0949 µM, first compound 0.00949 µM) 18.6%; (second compound 0.0949 µM, first compound 0.03 µM) 13.6%; (second compound 0.0949 µM, first compound 0.0949 µM) 10.4%; (second compound 0.0949 µM, first compound 0.3 µM) 6.38%. The viability, T/C by setting is: (second compound 0.3 µM, first compound 0.000949 µM) 21.4%; (second compound 0.3 µM, first compound 0.003 µM) 20.8%; (second compound 0.3 µM, first compound 0.00949 µM) 15.6%; (second compound 0.3 µM, first compound 0.03 µM) 14.6%; (second compound 0.3 µM, first compound 0.0949 µM) 10.7%; (second compound 0.3 µM, first compound 0.3 µM) 5.7%.

On to `CC(C)n1nc(-c2ccc3oc(N)nc3c2)c2c(N)ncnc21`, for which the viability, T/C runs as follows: (compound 0.00316 µM) 84% [middle of 4 runs]; (compound 0.01 µM) 66% [middle of 4 runs]; (compound 0.0316 µM) 54.3% [middle of 4 runs].

The record behind these values is PubChem BioAssay AID2060899 (Molecular Pharmacology Branch, DTP, NCI, 2025).
